Laboratory results as given in BindingDB's records for doi:10.1016/j.ab.2006.10.017 (Pfizer, 2007).

The compounds below were run against T1, Renin (Homo sapiens, UniProt P00797) (assay: In Vitro Renin IC50 Determinations (Tandem GFP FRET Assay)). Settings: pH 7.4; 22 °C.
T1 sequence (P00797 whole entry): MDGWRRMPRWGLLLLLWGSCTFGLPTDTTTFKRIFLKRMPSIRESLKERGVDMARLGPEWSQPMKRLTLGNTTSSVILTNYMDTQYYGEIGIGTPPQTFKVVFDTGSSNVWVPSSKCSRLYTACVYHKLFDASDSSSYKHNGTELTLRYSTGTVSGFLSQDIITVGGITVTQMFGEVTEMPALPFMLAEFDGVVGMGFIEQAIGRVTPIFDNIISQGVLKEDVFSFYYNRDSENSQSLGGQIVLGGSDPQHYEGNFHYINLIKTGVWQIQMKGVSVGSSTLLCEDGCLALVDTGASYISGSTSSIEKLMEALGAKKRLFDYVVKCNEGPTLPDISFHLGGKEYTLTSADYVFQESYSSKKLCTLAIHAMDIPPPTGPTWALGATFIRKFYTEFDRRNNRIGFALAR
Source text: The renin assay utilized a tandem Green Flourescent Protein (tGFP) substrate that was hydrolyzed by human rennin.
An IC50 of 336 nM was found for `CCc1nc(N)nc(NCCc2ccccc2NC(=O)c2ccc(N)c(OC)c2)c1-c1ccc2c(c1)N(CCCOC)C(=O)C(C)(C)O2` [4-amino-N-{2-[2-({2-amino-6-ethyl-5-[4-(3-methoxypropyl)-2,2-dimethyl-3-oxo-3,4-dihydro-2H-1,4-benzoxazin-6-yl]pyrimidin-4-yl}amino)ethyl]phenyl}-3-methoxybenzamide] in this work.
An IC50 of 6560 nM was found for `CCc1nc(N)nc(N)c1-c1ccc(NCc2cc(F)cc(F)c2)cc1` [5-(4-{[(3,5-difluorophenyl)methyl]amino}phenyl)-6-ethylpyrimidine-2,4-diamine] in this work.
An IC50 of 691 nM was found for `CCc1nc(N)nc(N)c1-c1ccc2c(c1)N(CCCOC)CCC2` [6-ethyl-5-[1-(3-methoxypropyl)-1,2,3,4-tetrahydroquinolin-7-yl]pyrimidine-2,4-diamine] in this work.
An IC50 of 58 nM was found for `CCc1nc(N)nc(N)c1-c1ccc2c(c1)N(CCCOC)C(c1ccccc1)CC2` (stereo unspecified) [6-ethyl-5-[1-(3-methoxypropyl)-2-phenyl-1,2,3,4-tetrahydroquinolin-7-yl]pyrimidine-2,4-diamine] in this work.
An IC50 of 173 nM was found for `CCc1nc(N)nc(N)c1-c1ccc2c3ccccc3n(CCCOC)c2c1` [6-ethyl-5-[9-(3-methoxypropyl)-9H-carbazol-2-yl]pyrimidine-2,4-diamine] in this work.
An IC50 of 27 nM was found for `CCc1nc(N)nc(NCCNS(=O)(=O)c2ccc3ccccc3c2)c1-c1ccc2c(c1)N(CCCOC)C(=O)C(C)(C)O2` [N-[2-({2-amino-6-ethyl-5-[4-(3-methoxypropyl)-2,2-dimethyl-3-oxo-3,4-dihydro-2H-1,4-benzoxazin-6-yl]pyrimidin-4-yl}amino)ethyl]naphthalene-2-sulfonamide] in this work.
